Test results from patent US20090029369A1, “GENETIC SELECTION SYSTEM TO IDENTIFY PROTEASES, PROTEASE SUBSTRATES AND PROTEASE INHIBITORS” (priority 2005, published 2009).
Where a chain is given by its changes, count along the chain named.

How the values were obtained:
[1] = test system: RLY07 cells; assay: growth of RLY07 cells expressing the inactive, point-mutated CMV protease (toxicity control); type: cell-based, S. cerevisiae
Protocol: (§1) RLY07 cells transformed with the different TRP1-M constructs and a plasmid encoding the CMV protease or the empty vector were inoculated in 3 ml of 2% galactose -ura -leu medium and grown at 30° C. to OD600 1. They were washed with 5 ml H2O and resuspended in 2% galactose -ura -leu -trp medium supplemented with 10% glycerol (=growth selection medium, glycerol promotes CMV protease dimerisation and subsequent proteolytic activity) and diluted to a start OD600 0.01. For the experiments with the coxackievirus 3C protease, preculture medium was 2% glucose -ura -leu, assay medium was 2% glucose -ura -leu trp, and inoculation OD600 0.001. At time zero, assay cultures at the aforesaid start OD600 were distributed in 96-well microtiter plates, with a volume of 150 μl per well, and incubated without shaking at 30° C. At the time points indicated in the “results” section, plates were shaken to resuspend cells before being submitted to light scattering measurement at 595 nm in a Tecan Genios reader for determining cell density.
CMV protease inhibitors BI31 and BI36 (Boeringher Ingelheim, Quebec) were dissolved in DMSO and added to the assay cultures at time zero of the growth assay. Final DMSO concentration was 1%. […]

[2] = biological target: T1, CMV protease (Human cytomegalovirus, UniProt P16753); assay: yeast growth selection assay: RLY07 cells co-expressing Trp1(194)-M substrate and CMV protease; type: cell-based; set-up: The CMV protease gene encoding amino acids 1-256 of the 75 kDa precursor was obtained by PCR from CMV infected MRC5 human cells; expressed in transfected cells; host or cells: Saccharomyces cerevisiae RLY07 (pdr5Δ snq2Δ yor1Δ); Protease on CEN4-ARS1 plasmid pMH51 under the GAL1 promoter; conditions: for effect of increasing concentrations on cell proliferation: concentration series, active protease, ~2 days at 30° C., 96-well plates
Protocol: as §1
CMV protease inhibitors BI31 and BI36 (Boeringher Ingelheim, Quebec) were dissolved in DMSO and added to the assay cultures at time zero of the growth assay. Final DMSO concentration was 1%.
RLY07 cells co-expressing Trp1^194-M substrate and the CMV protease were incubated with a concentration series of BI31 and BI36 in 96-well microtiter plates and cultivated under selective conditions. […] Importantly, despite this toxicity BI31 still stimulates growth of cells expressing the active protease (triangles). For example, at 50 μM cell density is multiplied by a factor 4 despite 25% toxicity.

[3] = biological target: T1, CMV protease; assay: Western blot of Trp1(194)-M substrate cleavage by CMV protease in yeast; type: cell-based; set-up: The CMV protease gene encoding amino acids 1-256 of the 75 kDa precursor was obtained by PCR from CMV infected MRC5 human cells; expressed in transfected cells; host or cells: Saccharomyces cerevisiae RLY07; Protease on plasmid pMH51 under the GAL1 promoter
Protocol: Yeast whole cell extracts were prepared as described by Burke et al. (Burke, Dawson et al. 2000). Proteins were separated by SDS-PAGE and Western blot analysis was performed according to standard procedures (Ausubel et al., 2003, Current Protocols in Molecular Biology). An HA-monoclonal antibody from Sigma (clone 3F10) was used at a concentration of 30 ng/ml to detect expression of TRP1(194)-M.
The Western blot was performed to provide biochemical evidence for inhibition of cleavage of CMV protease by compound BI36 (FIG. 5B). […] As in the Western blot on FIG. 3C, unfortunately no cleavage products could be detected.

[4] = biological target: Trp1-2C/3A substrate: yeast Trp1p with the 13 amino acid coxsackievirus B3 2C/3A cleavage sequence inserted after Gly194 (Saccharomyces cerevisiae; coxsackievirus B3) (UniProt P00912); assay: cell-based or functional assay
[5] = biological target: Trp1(194)-M (short): yeast Trp1p with the 13 amino acid CMV M-site cleavage sequence inserted after Gly194 (Saccharomyces cerevisiae; human cytomegalovirus) (UniProt P00912); assay: cell-based or functional assay
[6] = biological target: Trp1(194)-M (long): yeast Trp1p with the 39 amino acid CMV M-site cleavage sequence inserted after Gly194 (Saccharomyces cerevisiae; human cytomegalovirus) (UniProt P00912); assay: cell-based or functional assay
[7] = biological target: point-mutated Trp1(194)-M (A→E) substrate with HA tags, as blotted, P00912
[8] = biological target: T2, Trp1(194)-M with HA tags at both the N-terminus and the C-terminus, P00912
T2 chain: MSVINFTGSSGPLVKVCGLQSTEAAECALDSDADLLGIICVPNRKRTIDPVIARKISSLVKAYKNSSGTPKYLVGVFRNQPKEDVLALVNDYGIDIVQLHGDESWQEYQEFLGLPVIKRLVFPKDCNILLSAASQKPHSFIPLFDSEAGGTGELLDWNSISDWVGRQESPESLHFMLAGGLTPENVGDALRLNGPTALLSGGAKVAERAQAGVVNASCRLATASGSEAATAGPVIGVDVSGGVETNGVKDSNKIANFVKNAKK

CN(Cc1ccc(C(F)(F)F)cc1)C(=O)N1C(=O)C[C@@H]1CSc1ncccn1 [BI31]
toxicity ([1]; 50 μM): 25%
toxic effect on cells (decrease of cell proliferation) ([1]; increasing concentrations, cells expressing inactive protease): dose-dependent toxic effect
factor by which cell density is multiplied ([2]; 50 μM, cells expressing the active protease): 4
effect of increasing concentrations on cell proliferation [2]: dose-dependent increase of cell proliferation

CN(Cc1ccc([N+](=O)[O-])cc1)C(=O)N1C(=O)C[C@@H]1CSc1nnnn1C [BI36]
inhibition of proteolysis (Western blot) ([3]; 10 μM): only slightly inhibited
inhibition of cleavage (Western blot) ([3]; 100 μM): inhibits the cleavage almost completely
inhibition of substrate cleavage (Western blot) ([3]; concentration series 100 μM, 30 μM, 10 μM): prevented substrate cleavage in a dose-dependent manner
EC50 [2]: 31 µM
CMV protease inhibition judged from OD600 versus cells expressing inactive protease ([2]; 100 μM): almost completely inhibited
effect of increasing concentrations on cell proliferation [2]: dose-dependent increase of cell proliferation

cysteine protease 3C from coxsackievirus B3 (from UniProt P03313 1541-1723) (enzyme)
cell growth in selective medium lacking tryptophan after 27 h at 30° C., against cells expressing only the substrate [4]: 60%

human cytomegalovirus (CMV) protease, amino acids 1-256 of the 75 kDa precursor (from UniProt P16753 1-256) (enzyme)
OD600 of co-expressing RLY07 cells in liquid selective medium after 36 hours, against control cells with an empty plasmid instead of the protease plasmid [5]: 35%
proliferation reduction in medium lacking tryptophan for 38 h (FIG. 3B, lanes 1, 2) [5]: 35%
proliferation reduction in medium lacking tryptophan for 38 h [6]: 85%

B1: human cytomegalovirus (CMV) protease, amino acids 1-256 of the 75 kDa precursor (protein)
chain: MTMDEQQSQAVAPVYVGGFLARYDQSPDEAELLLPRDVVEHWLHAQGQGQPSLSVALPLNINHDDTAVVGHVAAMQSVRDGLFCLGCVTSPRFLEIVRRASEKSELVSRGPVSPLQPDKVVEFLSGSYAGLSLSSRRCDDVEAATSLSGSETTPFKHVALCSVGRRRGTLAVYGRDPEWVTQRFPDLTAADRDGLRAQWQRCGSTAVDASGDPFRSDSYGLLGNSVDALYIRERLPKLRYDKQLVGVTERESYVKA
anti-HA Western blot of yeast extracts, full-length substrate band (FIG. 3C, lane 4) [7]: active protease has no effect on the point-mutated Trp1(194)-M (A→E) substrate, as the band is also present
anti-HA Western blot of yeast extracts, full-length 33 kDa substrate band (FIG. 3C, lane 2) [8]: Co-expression of active CMV protease (lane 2) causes disappearance of the full-length substrate
anti-HA Western blot, 33 kDa band (FIG. 5B, lane 2) [8]: co-expressing the active protease instead of the inactive version causes disappearance of the 33 kDa band

B2: inactive version of the CMV protease harbouring the S(132) A mutation at the catalytic site (protein)
chain: B1 chain with S132A
anti-HA Western blot of yeast extracts, full-length 33 kDa substrate band (FIG. 3C, lane 3) [8]: the inactive CMV protease does not cleave the Trp1(194)-M substrate (since the full-length substrate band does not disappear)
anti-HA Western blot, 33 kDa band (FIG. 5B, lane 1) [8]: A 33 kDa band corresponds to the full-length Trp1(194)-M substrate upon co-expression with inactive CMV protease
